According to patent publication US20260062387A1, “SALT-INDUCIBLE KINASE INHIBITOR COMPOUND AND PHARMACEUTICAL COMPOSITION INCLUDING THE SAME” (MITSUBISHI TANABE PHARMA CORPORATION, priority 2023, published 2026):

Experiments:
Type in all cases: biochemical
GST-tagged SIK2 = GST-tagged SIK2 (Homo sapiens (Human), UniProt Q9H0K1); assay: SIK2 inhibition test (ADP-Glo Max Assay); details: enzyme 3 nM, AMARA Peptide 200 μM, ATP 1 mM, 2 hours room temperature
Summary of the method: (§1)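 ADP formed was detected by luciferase luminescence after a 2 h room-temperature reaction with 1 mM ATP, 5 mM MgCl2 and AMARA peptide at 200 μM (SIK1, SIK2) or 100 μM (SIK3). Final GST-enzyme levels were 20 nM SIK1, 3 nM SIK2 and 100 nM SIK3. IC50 came from 16-point concentration-response data.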

GST-tagged SIK3 = GST-tagged SIK3 (Homo sapiens (Human), UniProt Q9Y2K2); assay: SIK3 inhibition test (ADP-Glo Max Assay); details: enzyme 100 nM, AMARA Peptide 100 μM, ATP 1 mM, 2 hours room temperature
Summary of the method: as §1

GST-tagged SIK1 = GST-tagged SIK1 (Homo sapiens (Human), UniProt P57059); assay: SIK1 inhibition test (ADP-Glo Max Assay); details: enzyme 20 nM, AMARA Peptide 200 μM, ATP 1 mM, 2 hours room temperature
Summary of the method: as §1

Chain of GST-tagged SIK2 (Q9H0K1 whole entry): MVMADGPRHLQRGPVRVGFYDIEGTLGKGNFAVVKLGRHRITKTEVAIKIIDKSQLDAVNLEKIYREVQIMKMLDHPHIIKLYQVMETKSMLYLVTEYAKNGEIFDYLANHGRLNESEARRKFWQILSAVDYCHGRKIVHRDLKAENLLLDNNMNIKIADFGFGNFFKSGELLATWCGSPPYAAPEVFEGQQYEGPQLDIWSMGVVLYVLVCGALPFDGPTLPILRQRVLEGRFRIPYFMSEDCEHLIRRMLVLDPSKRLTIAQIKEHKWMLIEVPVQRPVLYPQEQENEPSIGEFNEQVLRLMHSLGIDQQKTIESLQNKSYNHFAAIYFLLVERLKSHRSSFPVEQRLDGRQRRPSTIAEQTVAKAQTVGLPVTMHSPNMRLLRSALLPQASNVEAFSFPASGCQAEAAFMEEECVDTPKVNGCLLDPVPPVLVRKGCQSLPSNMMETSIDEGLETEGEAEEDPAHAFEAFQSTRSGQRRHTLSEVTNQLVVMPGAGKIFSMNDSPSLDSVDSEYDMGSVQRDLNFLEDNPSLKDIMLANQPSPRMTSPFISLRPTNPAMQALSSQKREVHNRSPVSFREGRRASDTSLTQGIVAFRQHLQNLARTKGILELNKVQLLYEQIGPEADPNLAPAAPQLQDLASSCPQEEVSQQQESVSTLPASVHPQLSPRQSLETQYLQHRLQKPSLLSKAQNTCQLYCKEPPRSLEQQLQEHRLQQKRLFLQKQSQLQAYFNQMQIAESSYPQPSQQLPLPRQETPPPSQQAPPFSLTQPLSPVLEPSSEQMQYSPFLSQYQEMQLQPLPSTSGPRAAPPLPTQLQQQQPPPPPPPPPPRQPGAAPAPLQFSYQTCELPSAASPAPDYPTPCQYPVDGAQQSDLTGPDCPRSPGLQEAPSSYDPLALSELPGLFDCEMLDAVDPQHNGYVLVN
Chain of GST-tagged SIK3 (Q9Y2K2 whole entry): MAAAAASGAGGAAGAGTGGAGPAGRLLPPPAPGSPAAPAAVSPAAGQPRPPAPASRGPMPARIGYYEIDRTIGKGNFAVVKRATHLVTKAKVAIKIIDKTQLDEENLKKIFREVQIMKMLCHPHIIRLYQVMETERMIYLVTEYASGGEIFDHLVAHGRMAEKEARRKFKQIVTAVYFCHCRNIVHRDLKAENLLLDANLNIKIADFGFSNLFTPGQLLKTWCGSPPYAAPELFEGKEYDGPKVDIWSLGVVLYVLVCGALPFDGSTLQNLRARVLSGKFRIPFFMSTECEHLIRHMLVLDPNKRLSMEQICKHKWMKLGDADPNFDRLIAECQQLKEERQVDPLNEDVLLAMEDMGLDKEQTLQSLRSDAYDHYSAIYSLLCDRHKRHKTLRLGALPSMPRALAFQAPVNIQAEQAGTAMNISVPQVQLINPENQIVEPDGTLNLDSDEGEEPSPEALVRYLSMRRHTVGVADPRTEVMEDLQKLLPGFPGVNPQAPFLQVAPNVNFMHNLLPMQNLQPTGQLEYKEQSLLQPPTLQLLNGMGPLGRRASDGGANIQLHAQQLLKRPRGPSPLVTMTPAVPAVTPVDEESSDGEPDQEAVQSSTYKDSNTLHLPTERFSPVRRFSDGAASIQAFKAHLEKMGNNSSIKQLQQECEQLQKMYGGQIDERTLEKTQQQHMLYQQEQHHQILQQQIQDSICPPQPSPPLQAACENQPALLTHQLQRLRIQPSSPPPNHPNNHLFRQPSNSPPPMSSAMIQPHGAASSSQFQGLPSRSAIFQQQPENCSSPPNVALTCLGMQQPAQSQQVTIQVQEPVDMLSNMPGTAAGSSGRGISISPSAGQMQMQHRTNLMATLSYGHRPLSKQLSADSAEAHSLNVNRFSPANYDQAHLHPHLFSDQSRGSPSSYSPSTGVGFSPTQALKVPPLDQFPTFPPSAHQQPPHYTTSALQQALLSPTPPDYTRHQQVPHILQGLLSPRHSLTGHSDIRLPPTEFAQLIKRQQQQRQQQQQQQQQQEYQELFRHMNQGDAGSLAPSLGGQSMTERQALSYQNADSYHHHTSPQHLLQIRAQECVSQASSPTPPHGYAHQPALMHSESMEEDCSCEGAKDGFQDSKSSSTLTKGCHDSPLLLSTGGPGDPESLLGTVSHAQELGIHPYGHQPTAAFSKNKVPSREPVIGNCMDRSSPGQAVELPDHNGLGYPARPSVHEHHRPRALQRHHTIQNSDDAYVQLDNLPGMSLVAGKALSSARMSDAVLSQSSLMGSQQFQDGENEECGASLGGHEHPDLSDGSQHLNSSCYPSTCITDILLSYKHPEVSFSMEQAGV
Chain of GST-tagged SIK1 (P57059 whole entry): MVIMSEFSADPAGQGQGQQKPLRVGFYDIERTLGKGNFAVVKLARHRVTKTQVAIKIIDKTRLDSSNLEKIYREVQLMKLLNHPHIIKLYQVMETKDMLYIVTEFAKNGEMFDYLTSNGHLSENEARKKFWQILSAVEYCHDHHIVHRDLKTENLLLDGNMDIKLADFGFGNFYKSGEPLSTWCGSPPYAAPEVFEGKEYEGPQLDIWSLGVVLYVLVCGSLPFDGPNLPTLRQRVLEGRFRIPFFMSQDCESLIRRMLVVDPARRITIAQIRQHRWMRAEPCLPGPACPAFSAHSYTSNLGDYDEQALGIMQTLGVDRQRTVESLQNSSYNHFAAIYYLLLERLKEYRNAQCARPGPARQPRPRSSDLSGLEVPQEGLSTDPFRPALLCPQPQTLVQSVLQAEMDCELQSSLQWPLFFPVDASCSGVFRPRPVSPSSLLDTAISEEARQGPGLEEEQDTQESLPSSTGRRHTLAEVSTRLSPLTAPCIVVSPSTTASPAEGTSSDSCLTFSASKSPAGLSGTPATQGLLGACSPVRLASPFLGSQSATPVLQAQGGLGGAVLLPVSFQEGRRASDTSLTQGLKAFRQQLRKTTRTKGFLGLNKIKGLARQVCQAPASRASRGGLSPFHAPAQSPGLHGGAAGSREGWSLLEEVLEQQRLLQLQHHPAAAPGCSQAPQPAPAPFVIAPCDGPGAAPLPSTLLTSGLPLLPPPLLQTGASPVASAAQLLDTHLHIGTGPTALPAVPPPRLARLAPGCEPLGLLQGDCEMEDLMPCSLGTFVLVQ

IC50 (GST-tagged SIK2) [nM]	IC50 (GST-tagged SIK3) [nM]	IC50 (GST-tagged SIK1) [nM]	Structure (SMILES)
18.1	2.3	18	COc1cc(-c2c3c(C(F)F)cc(-c4cnn(CC(C)(C)O)c4)cc3nn2C)cc(OC(F)F)c1C(=O)N[C@@H]1CC1(F)F [Example 109]
3.2	1.7	6.5	COc1cc(-c2c3c(C#N)cc(-c4cnn(CC5(O)CCC5)c4)cc3nn2C)cc(OC(F)F)c1C(=O)N[C@@H]1CC1(F)F [Example 110, 4-[4-cyano-6-[1-[(1-hydroxycyclobutyl)methyl]pyrazol-4-yl]-2-methylindazol-3-yl]-N-[(1R)-2,2-difluorocyclopropyl]-2-(difluoromethoxy)-6-methoxybenzamide]
1.7	1.7	6.2	COc1cc(-c2c3c(C#N)cc(-c4cnn(CCC(C)(C)O)c4)cc3nn2C)cc(OC(F)F)c1C(=O)N[C@@H]1CC1(F)F [Example 111, 4-[4-cyano-6-[1-(3-hydroxy-3-methylbutyl)pyrazo]-4-yl]-2-methylindazol-3-yl]-N-[(1R)-2,2-difluoro[cyclopropyl]-2-(difluoromethoxy)-6-methoxybenzamide]
13.7	3	16.6	CCn1cc(-c2cc(C(F)F)c3c(-c4cc(OC)c(C(N)=O)c(OC(F)F)c4)n(C)nc3c2)cn1 [Example 112, 2-(difluoromethoxy)-4-[4-(difluoromethyl)-6-(1-ethylpyrazol-4-yl)-2-methylindazol-3-yl]-6-methoxybenzamide]
4.1	0.7	12.6	COc1cc(-c2c3c(C#N)cc(-c4cnn(CC(C)(C)O)c4)cc3nn2C)cc(OC(F)F)c1C(=O)N[C@@H]1CC1(F)F [Example 114]
5.8	1.1	16.1	CCn1cc(-c2cc(C(F)F)c3c(-c4cc(OC)c(C(=O)N[C@@H]5CC5(F)F)c(OC(F)F)c4)n(C)nc3c2)cn1 [Example 116, N-[(1R)-2,2-difluorocyclopropyl]-2-(difluoromethoxy)-4-[4-(difluoromethyl)-6-(1-ethylpyrazol-4-yl)-2-methylindazol-3-yl]-6-methoxybenzamide]
1	0.6	5.3	CCn1cc(-c2cc(C#N)c3c(-c4cc(OC)c(C(=O)N[C@@H]5CC5(F)F)c(OC(F)F)c4)n(C)nc3c2)cn1 [Example 118, 4-[4-cyano-6-(1-ethylpyrazol-4-yl)-2-methylindazol-3-yl]-N-[(1R)-2,2-difluorocyclopropyl]-2-(difluoromethoxy)-6-methoxybenzamide]
2.6	0.7	3.9	COc1cc(-c2c3c(C(F)F)cc(-c4cnn(CCC(C)(C)O)c4)cc3nn2C)cc(OC(F)F)c1C(=O)N[C@@H]1CC1(F)F [Example 119]
7.9	4.4	15.8	COc1cc(-c2c3c(C#N)cc(-c4cnn(CCC5(O)CCC5)c4)cc3nn2C)cc(OC(F)F)c1C(=O)NCC1(F)CC1 [Example 122, 4-[4-cyano-6-[1-[2-(1-hydroxycyclobutyl)ethyl]pyrazol-4-yl]-2-methylindazol-3-yl]-2-(difluoromethoxy)-N-[(1-fluorocyclopropyl)methyl]-6-methoxybenzamide]

The next lines start with the molecule.

Structure (SMILES)	IC50 (GST-tagged SIK2) [nM]	IC50 (GST-tagged SIK3) [nM]	IC50 (GST-tagged SIK1) [nM]
COc1cc(-c2c3c(OCc4cncc(C#N)c4)cc(-c4cnn(C)c4)cc3nn2C)cc(OC(F)F)c1C(=O)N1CC(O)(C(F)(F)F)C1 [Example 104, 5-[[3-[3-(difluoromethoxy)-4-[3-hydroxy-3-(trifluoromethyl)azetidin-1-carbonyl]-5-methoxyphenyl]-2-methyl-6-(1-methylpyrazol-4-yl)indazol-4-yl]oxymethyl]pyridine-3-carbonitrile]	1.8	4.8	6.4
CCCn1cc(-c2cc(C(F)F)c3c(-c4cc(OC)c(C(N)=O)c(OC(F)F)c4)n(C)nc3c2)cn1 [Example 113, 2-(difluoromethoxy)-4-[4-(difluoromethyl)-2-methyl-6-(1-propylpyrazol-4-yl)indazol-3-yl]-6-methoxybenzamide]	15.6	2.7	19.7
COc1cc(-c2c3c(C#N)cc(-c4cnn(CC(F)F)c4)cc3nn2C)cc(OC(F)F)c1C(=O)N[C@@H]1CC1(F)F [Example 115, 4-[4-cyano-6-[1-(2,2-difluoroethyl)pyrazol-4-yl]-2-methylindazol-3-yl]-N-[(1R)-2,2-difluorocyclopropyl]-2-(difluoromethoxy)-6-methoxybenzamide]	2.4	< 0.6	9.4
COc1cc(-c2c3c(C(F)F)cc(-c4cnn(CC5(O)CCC5)c4)cc3nn2C)cc(OC(F)F)c1C(=O)N[C@@H]1CC1(F)F [Example 117, N-[(1R)-2,2-difluorocyclopropyl]-2-(difluoromethoxy)-4-[4-(difluoromethyl)-6-[1-[(1-hydroxycyclobutyl)methyl]pyrazol-4-yl]-2-methylindazol-3-yl]-6-methoxybenzamide]	9.3	1	12.5
COc1cc(-c2c3c(C(F)F)cc(-c4cnn(CC[C@@H](C)O)c4)cc3nn2C)cc(OC(F)F)c1C(=O)N[C@@H]1CC1(F)F [Example 120, N-[(1R)-2,2-difluorocyclopropyl]-2-(difluoromethoxy)-4-[4-(difluoromethyl)-6-[1-[(3R)-3-hydroxybutyl]pyrazol-4-yl]-2-methylindazol-3-yl]-6-methoxybenzamide]	3.5	0.7	7.8
COc1cc(-c2c3c(C(F)F)cc(-c4cnn(C[C@H]5C[C@@H](O)C5)c4)cc3nn2C)cc(OC(F)F)c1C(=O)N[C@@H]1CC1(F)F [Example 121, N-[(1R)-2,2-difluorocyclopropyl]-2-(difluoromethoxy)-4-[4-(difluoromethyl)-6-[1-[(cis-3-hydroxycyclobutyl)methyl]pyrazol-4-yl]-2-methylindazol-3-yl]-6-methoxybenzamide]	4.8	1.1	9.5
COc1cc(-c2c3c(C#N)cc(-c4cnn(CCC5(O)CCC5)c4)cc3nn2C)cc(OC(F)F)c1C(=O)N[C@@H]1CC1(F)F [Example 123, 4-[4-cyano-6-[1-[2-(1-hydroxycyclobutyl)ethyl]pyrazol-4-yl]-2-methylindazol-3-yl]-N-[(1R)-2,2-difluorocyclopropyl]-2-(difluoromethoxy)-6-methoxybenzamide]	1.7	0.6	4.4
COc1cc(-c2c3c(C#N)cc(-c4cnn(C[C@H](O)C(F)(F)F)c4)cc3nn2C)cc(OC(F)F)c1C(=O)N[C@@H]1CC1(F)F [Example 124, 4-[4-cyano-2-methyl-6-[1-[(2S)-3,3,3-trifluoro-2-hydroxypropyl]pyrazol-4-yl]indazol-3-yl]-N-[(1R)-2,2-difluorocyclopropyl]-2-(difluoromethoxy)-6-methoxybenzamide]	1.1	1.6	8
COc1cc(-c2c3c(C#N)cc(-c4cnn(C[C@H](C)O)c4)cc3nn2C)cc(OC(F)F)c1C(N)=O [Example 125, 4-[4-cyano-6-[1-[(2S)-2-hydroxypropyl]pyrazol-4-yl]-2-methylindazol-3-yl]-2-(difluoromethoxy)-6-methoxybenzamide]	1.8	2.9	11.5
